Patent US20120121535A1, “AGENT FOR PREVENTING RECURRENCE OF LEUKEMIA” (RIKEN, priority 2009, published 2012)

Columns and labels:
LSCs = assay: Limited dilution secondary transplantation of sorted hCD34+ BM cells (LSC frequency, survival of secondary recipients); format: in vivo, NOD/SCID/IL2rg^null mice transplanted with human AML; settings: secondary recipients of hCD34+ cells from treated mice
Source text: Newborn (within 2 days of birth) NOD/SCID/IL2rg^null recipient received 150 cGy of total body irradiation using a ^137Cs-source irradiator, followed by intravenous injection of AML cells within two hours. For primary transplantation, 10^3 to 5×10^4 sorted BM cells per recipient from a 7AAD^− lineage (hCD3/hCD4/hCD8) ^−hCD34^+hCD38^− AML patient were used, as described in F. Ishikawa et al., Nat. Biotechnol. 25, 1315 (2007). For secondary transplantation after administration of Ara-C (cytarabine) alone or after administration of G-CSF followed by administration of Ara-C, 2×10^2, 2×10^3, 2×10^4, or 2×10^5 sorted 7AAD^−hCD45^+hCD34^+ BM cells per recipient were used. For fluorescence-activated cell sorting, BMMNC cells from AML patients were labeled with fluorescent dye-conjugated mouse anti-hCD3, anti-hCD4, anti-hCD8, anti-hCD34 and anti-hCD38 monoclonal antibodies (BD Immunocytometry), and BMMNC cells from recipients were labeled with mouse anti-hCD45, anti-hCD34 and anti-hCD38 monoclonal antibodies (BD Immunocytometry); the cells were sorted using FACSAria (Beckton Dickinson, Calif.). Doublets were eliminated via analysis of FSC/SSC-height and FSC/SSC-width. […]
Differences in the ratios/absolute numbers of cells (%), activated caspase-negative cells (%), and BM CD34^+ cells in the cell cycle were analyzed using two-tailed t-test (GraphPad Prism, GraphPad, San Diego, Calif.). […]

hCD34+CD38− LSCs = assay: Flow cytometric cell cycle analysis of LSCs in BM of recipients of primary transplantation of human AML; format: in vivo, NOD/SCID/IL2rg^null mice transplanted with human AML
Source text: Newborn (within 2 days of birth) NOD/SCID/IL2rg^null recipient received 150 cGy of total body irradiation using a ^137Cs-source irradiator, followed by intravenous injection of AML cells within two hours. For primary transplantation, 10^3 to 5×10^4 sorted BM cells per recipient from a 7AAD^− lineage (hCD3/hCD4/hCD8) ^−hCD34^+hCD38^− AML patient were used, as described in F. Ishikawa et al., Nat. Biotechnol. 25, 1315 (2007). For secondary transplantation after administration of Ara-C (cytarabine) alone or after administration of G-CSF followed by administration of Ara-C, 2×10^2, 2×10^3, 2×10^4, or 2×10^5 sorted 7AAD^−hCD45^+hCD34^+ BM cells per recipient were used. For fluorescence-activated cell sorting, BMMNC cells from AML patients were labeled with fluorescent dye-conjugated mouse anti-hCD3, anti-hCD4, anti-hCD8, anti-hCD34 and anti-hCD38 monoclonal antibodies (BD Immunocytometry), and BMMNC cells from recipients were labeled with mouse anti-hCD45, anti-hCD34 and anti-hCD38 monoclonal antibodies (BD Immunocytometry); the cells were sorted using FACSAria (Beckton Dickinson, Calif.). Doublets were eliminated via analysis of FSC/SSC-height and FSC/SSC-width. After the sorting, the purities of hCD34^+hCD38^− cells and hCD34^+ cells exceeded 98%.
For experiments involving administration of G-CSF alone, administration of Ara-C alone, and administration of G-CSF followed by administration of Ara-C, recipients of primary transplantation of human AML were used 16 to 24 weeks after transplantation. […]
For evaluation of human AML transplantation, blood was drawn from the orbital sinus of each recipient every 3 weeks starting at week 6 after transplantation. Myelocytes were recovered from two tibiae and one femur from each analyzed recipient; MNCs (mononucleocytes) were counted manually and using an automated blood cell analyzer (Celltac α, Nihon Kohden, Japan), and the absolute number of BMMNCs derived from each recipient was estimated. The absolute number of human CD34^+ cells (derived from two tibiae and one femur) per mouse was determined by multiplying the thus-obtained total BMMNC count by 7AAD^−hCD45^+hCD34^+ BM cells (%). BrdU uptake was measured using a BrdU flow kit (BD Pharmingen, Calif.). To quantify cells in the G0 phase of the cell cycle, the cells were stained with Hoechst 33342 and Pyronin Y, and then surface-stained using standard procedures. Quantitation of cells undergoing apoptosis was performed by staining activated caspase-3 in the cells using a rabbit anti-activated caspase-3 monoclonal antibody (BD Pharmingen, Calif.). […]

[1] = test system: hCD34+ cells, including LSCs; assay: Percentage and absolute number of remaining viable hCD45+CD34+ cells in recipient BM; format: in vivo, NOD/SCID/IL2rg^null mice transplanted with human AML; settings: mean +/− SEM; for #CD45+CD34+/mouse (×10^6): two tibiae and one femur; for % CD45+CD34+: viable cells in BM
Source text: (§1) For experiments involving administration of G-CSF alone, administration of Ara-C alone, and administration of G-CSF followed by administration of Ara-C, recipients of primary transplantation of human AML were used 16 to 24 weeks after transplantation. For each experiment for comparison of various dose groups, a pair of recipients was selected from among litter mates, with the same primary AML sample transplanted in the same amount on the same day so as to suppress variation among the litter mates and variation due to differences in transplantation level. Performed were administration of recombinant human G-CSF (Wako, Japan): 300 μg/kg s.c. qd×5 days; administration of Ara-C (Biogenesis, Poole, UK): 1 g/kg i.p. qd×2 days; administration of G-CSF+Ara-C: G-CSF 300 μg/kg s.c. qd×5 days, and concurrent administration of Ara-C 1 g/kg i.p. qd×2 days on days 4 and 5 of administration. The recipients were killed 16 hours after final injection. BrdU (1.5 mg/mouse; BD Biosciences, Calif.) was injected by i.p. to recipients under a cell cycle analysis by BrdU uptake immediately after the final injection (s.c. stands for subcutaneous administration, and i.p. for intraperitoneal administration).
For evaluation of human AML transplantation, blood was drawn from the orbital sinus of each recipient every 3 weeks starting at week 6 after transplantation. Myelocytes were recovered from two tibiae and one femur from each analyzed recipient; MNCs (mononucleocytes) were counted manually and using an automated blood cell analyzer (Celltac α, Nihon Kohden, Japan), and the absolute number of BMMNCs derived from each recipient was estimated. The absolute number of human CD34^+ cells (derived from two tibiae and one femur) per mouse was determined by multiplying the thus-obtained total BMMNC count by 7AAD^−hCD45^+hCD34^+ BM cells (%). BrdU uptake was measured using a BrdU flow kit (BD Pharmingen, Calif.). To quantify cells in the G0 phase of the cell cycle, the cells were stained with Hoechst 33342 and Pyronin Y, and then surface-stained using standard procedures. Quantitation of cells undergoing apoptosis was performed by staining activated caspase-3 in the cells using a rabbit anti-activated caspase-3 monoclonal antibody (BD Pharmingen, Calif.). Surface labeling was achieved using mouse anti-human CD45, anti-CD34 and anti-CD38 monoclonal antibodies (BD Immunocytometry). Analyses were performed using FACSAria and FACSCanto II (Becton Dickinson, Calif.).
To evaluate the frequency and function of LSCs remaining after each dosing, limited dilution and secondary transplantation of living hCD34^+ BM cells, including leukemia stem cells sorted from recipients given administration of Ara-C alone or G-CSF+Ara-C, were performed. The absolute number of hCD34^+ cells was obtained from the number of mononucleocytes in two tibiae and one femur derived from each recipient, and viable hCD34^+ cell (%) was obtained by flow cytometry.
The results are shown as mean value +/− SEM; differences were examined by two-tailed t-test.

[2] = test system: AML cells in the endosteum; assay: HE and TUNEL staining of bone sections; format: in vivo, NOD/SCID/IL2rg^null mice transplanted with human AML; settings: bone sections of recipients
Source text: For experiments involving administration of G-CSF alone, administration of Ara-C alone, and administration of G-CSF followed by administration of Ara-C, recipients of primary transplantation of human AML were used 16 to 24 weeks after transplantation. For each experiment for comparison of various dose groups, a pair of recipients was selected from among litter mates, with the same primary AML sample transplanted in the same amount on the same day so as to suppress variation among the litter mates and variation due to differences in transplantation level. […]
After administration of Ara-C alone or after administration of Ara-C following pre-administration of G-CSF, the BM of the recipients was evaluated in terms of 1) a flow cytometry fraction of activated caspase-3 positive LSCs undergoing apoptosis, 2) histological localization of cells undergoing apoptosis in the recipient BM as determined by TUNEL staining, 3) percentage and absolute number of remaining viable hCD34^+ AML cells, and 4) frequency and AML-causing potential of remaining LSCs in alternative measurements of the likelihood of AML recurrence via limited dilution and sequential transplantation of sorted hCD34^+ cells. […]

[3] = test system: CD34+CD38− LSCs and CD34+CD38+ AML non-stem cells; assay: Activated caspase-3 flow cytometry of BM cells undergoing apoptosis; parameters: species or system NOD/SCID/IL2rg^null mice transplanted with human AML; settings: in vivo administration, recipient BM
Procedure: Myelocytes were recovered from two tibiae and one femur from each analyzed recipient; MNCs (mononucleocytes) were counted manually and using an automated blood cell analyzer (Celltac α, Nihon Kohden, Japan), and the absolute number of BMMNCs derived from each recipient was estimated. The absolute number of human CD34^+ cells (derived from two tibiae and one femur) per mouse was determined by multiplying the thus-obtained total BMMNC count by 7AAD^−hCD45^+hCD34^+ BM cells (%). BrdU uptake was measured using a BrdU flow kit (BD Pharmingen, Calif.). To quantify cells in the G0 phase of the cell cycle, the cells were stained with Hoechst 33342 and Pyronin Y, and then surface-stained using standard procedures. […]

[4] = test system: AML cells in the endosteal region; assay: Histological analysis of bone sections (BrdU uptake, Ki67 immunofluorescence) of recipients of human AML; format: in vivo, NOD/SCID/IL2rg^null mice transplanted with human AML
Source text: as §1
Paraformaldehyde-fixed, decalcified, paraffin-embedded sections were prepared from femurs of the recipients primarily transplanted with AML. […]

[5] = post-Ara-C, intraperitoneal, n=15
[6] = after administration of G-CSF in vivo, all cases examined

`Nc1ccn([C@@H]2O[C@H](CO)[C@@H](O)[C@@H]2O)c(=O)n1` [Ara-C, cytarabine] was tested, and the “Secondary mouse recipients surviving beyond 19 weeks after transplantation” value (LSCs) was “None”, the “% G0/G1 of CD34+CD38− AML cells” value (hCD34+CD38− LSCs; [5]) was 91.7+/−2.3% and the “% S of CD34+CD38− AML cells” value (hCD34+CD38− LSCs; [5]) was 0.1+/−0.1%. The “#CD45+CD34+/mouse (×10^6)” value ([1]; Case ID 1) was 1.4 +/− 0.3 ×10^6, the “% CD45+CD34+” value ([1]; Case ID 1) was 29.7 +/− 1.6% and the “#CD45+CD34+/mouse (×10^6)” value ([1]; Case ID 2) was 4.9 +/− 0.7 ×10^6. The “% CD45+CD34+” value ([1]; Case ID 2) was 84.9 +/− 2.5%, the “#CD45+CD34+/mouse (×10^6)” value ([1]; Case ID 3) was 2.3 +/− 0.1 ×10^6 and the “% CD45+CD34+” value ([1]; Case ID 3) was 80.2 +/− 2.3%. For the same molecule, the “#CD45+CD34+/mouse (×10^6)” value ([1]; Case ID 4) was 3.6 +/− 0.8 ×10^6, the “% CD45+CD34+” value ([1]; Case ID 4) was 68.0 +/− 2.8% and the “#CD45+CD34+/mouse (×10^6)” value ([1]; Case ID 5) was 2.1 +/− 0.2 ×10^6. The “% CD45+CD34+” value ([1]; Case ID 5) was 61.5 +/− 7.5%, the “#CD45+CD34+/mouse (×10^6)” value ([1]; Case ID 6) was 5.3 +/− 1.4 ×10^6 and the “% CD45+CD34+” value ([1]; Case ID 6) was 49.0 +/− 9.2%. The “#CD45+CD34+/mouse (×10^6)” value ([1]; Case ID 7) was 0.7 +/− 0.1 ×10^6, the “% CD45+CD34+” value ([1]; Case ID 7) was 16.5 +/− 1.7% and the “Cell death in the endosteum (TUNEL and HE staining)” value [2] was “TUNEL-negative AML cells remaining in the endosteum”. The “Apoptosis of CD34+CD38+ AML non-stem cells (activated caspase-3)” value [3] was “underwent apoptosis” and the “Apoptosis of CD34+CD38− LSCs (activated caspase-3)” value [3] was “the majority of CD34^+CD38^− LSCs did not”.

B1: G-CSF: recombinant human G-CSF (Wako, Japan), granulocyte colony stimulation factor (protein)
chain: TPLGPASSLPQSFLLKCLEQVRKIQGDGAALQEKLVSECATYKLCHPEELVLLGHSLGIPWAPLSSCPSQALQLAGCLSQLHSGLFLYQGLLQALEGISPELGPTLDTLQLDVADFATTIWQQMEELGMAPALQPTQGAMPAFASAFQRRAGGVLVASHLQSFLEVSYRVLRHLAQP
B1 was tested, and the “LSCs in the G0 phase fraction” value (hCD34+CD38− LSCs; [6]) was “decreased significantly”, the “LSCs in the S phase and G2/M phase” value (hCD34+CD38− LSCs; [6]) was “increased” and the “Expression of Ki67 in AML cells in BM center and endosteal region” value ([4]; after 5 days of administration of G-CSF) was “expression of Ki67 was induced”. The “BrdU uptake of AML cells in the endosteal region” value ([4]; after administration of G-CSF) was “increase in BrdU uptake”.
